Like-named read-outs stand apart in the source and are kept apart here.
Key:
stool odor compounds [1] = conditions: 3 weeks; for Alcohols / Aldehydes / Carboxylic acids / Esters / Heterocycles / Indoles / Ketones / Phenols / Thiols/Sulfides: dog stool, area under chromatogram peak
Method: (§1) An experiment was conducted to characterize the effects of zinc acetate on stool odor compounds in dogs. To a control food, which was a dry food composed of kibbles containing a base level of 150 ppm zinc in the form of zinc acetate, various amounts of zinc in the form of zinc acetate were added as a coating on the kibbles. This was done by hand coating (sprinkling) fine zinc acetate powder on the kibble in a rotating drum in a two-step coating process after all other topical ingredients had been added by in-line enrobing. Ten dogs were fed control food with no added zinc, ten dogs were fed control food with 400 ppm zinc added, ten dogs were fed control food with 600 ppm zinc added, and ten dogs were fed control food with 900 ppm zinc added. The dogs were fed one of these diets for three weeks. At the end of three weeks, stool samples were collected and analyzed by putting a standard amount of stool in a glass container and incubating a solid phase microextraction fiber in the headspace. Volatiles bound to the fiber were eluted onto a gas chromatograph for analysis. The compounds were identified using a […].
(§2) The numbers indicate relative differences as measured by the area under the peak in a chromatogram.

stool odor compounds [2] = conditions: one month; for Alcohols / Aldehydes / Carboxylic acids / Esters / Heterocycles / Indoles / Ketones / Phenols / Thiols/Sulfides: cat stool, area under chromatogram peak
Method: as §1
An experiment was conducted to characterize the effects of zinc acetate on stool odor compounds in cats. To a control food, which was a dry food composed of kibbles containing a base level of 160 ppm zinc in the form of zinc acetate, various amounts of zinc were added in the form of zinc acetate as in Example 1. Eight cats were fed control food with no added zinc, eight cats were fed control food with 860 ppm zinc acetate added, seven cats were fed control food with 1200 ppm zinc acetate added, and seven cats were fed control food with 1800 ppm zinc acetate added. The cats were fed one of these diets for one month. At the end of the month, stool samples were collected and analyzed as described in Example 1.
as §2

flatulence = conditions: dogs, literature report; cited from earlier work
[3] = 400 ppm added zinc on control food
[4] = 600 ppm added zinc on control food
[5] = 900 ppm added zinc on control food
[6] = 860 ppm added zinc on control food
[7] = 1200 ppm added zinc on control food
[8] = 1800 ppm added zinc on control food

CC(=O)[O-].CC(=O)[O-].[Zn+2] [zinc acetate]
Alcohols (stool odor compounds [1]; [3]): 17.3 ± 12.5 ×10^5
Aldehydes (stool odor compounds [1]; [3]): 0.45 ± 0.3 ×10^3
Carboxylic acids (stool odor compounds [1]; [3]): 3.79 ± 3.55 ×10^4
Esters (stool odor compounds [1]; [3]): 34.3 ± 34.0 ×10^5
Heterocycles (stool odor compounds [1]; [3]): 0.94 ± 0.37 ×10^4
Indoles (stool odor compounds [1]; [3]): 2.64 ± 2.19 ×10^4
Ketones (stool odor compounds [1]; [3]): 179 ± 0.89 ×10^6
Phenols (stool odor compounds [1]; [3]): 9.62 ± 6.0 ×10^4
Thiols/Sulfides (stool odor compounds [1]; [3]): 8.69 ± 6.16 ×10^4
Alcohols (stool odor compounds [1]; [4]): 12.3 ± 0.9 ×10^5
Aldehydes (stool odor compounds [1]; [4]): 0.56 ± 0.51 ×10^3
Carboxylic acids (stool odor compounds [1]; [4]): 22.7 ± 32.2 ×10^4
Esters (stool odor compounds [1]; [4]): 34.1 ± 34.4 ×10^5
Heterocycles (stool odor compounds [1]; [4]): 1.19 ± 0.54 ×10^4
Indoles (stool odor compounds [1]; [4]): 2.0 ± 0.86 ×10^4
Ketones (stool odor compounds [1]; [4]): 201 ± 66.5 ×10^6
Phenols (stool odor compounds [1]; [4]): 9.17 ± 5.64 ×10^4
Thiols/Sulfides (stool odor compounds [1]; [4]): 5.14 ± 2.4 ×10^4
Alcohols (stool odor compounds [1]; [5]): 23.4 ± 14.3 ×10^5
Aldehydes (stool odor compounds [1]; [5]): 1.09 ± 1.29 ×10^3
Carboxylic acids (stool odor compounds [1]; [5]): 27.2 ± 21.2 ×10^4
Esters (stool odor compounds [1]; [5]): 32.6 ± 0.9 ×10^5
Heterocycles (stool odor compounds [1]; [5]): 1.13 ± 0.49 ×10^4
Indoles (stool odor compounds [1]; [5]): 1.78 ± 2.45 ×10^4
Ketones (stool odor compounds [1]; [5]): 160 ± 63.1 ×10^6
Phenols (stool odor compounds [1]; [5]): 4.08 ± 3.58 ×10^4
Thiols/Sulfides (stool odor compounds [1]; [5]): 4.91 ± 1.3 ×10^4
Effect of addition of zinc to the food on stool odor compound levels (in words) (stool odor compounds [1]; dogs, 400-900 ppm added zinc vs control food): decreased levels of phenols, thiols and sulfides and indoles
Alcohols (stool odor compounds [2]; [6]): 13.2 ± 27 ×10^4
Aldehydes (stool odor compounds [2]; [6]): 5.6 ± 3.6 ×10^4
Carboxylic acids (stool odor compounds [2]; [6]): 317 ± 160 ×10^4
Esters (stool odor compounds [2]; [6]): 78.4 ± 22.9 ×10^4
Heterocycles (stool odor compounds [2]; [6]): 0.62 ± 0.13 ×10^4
Indoles (stool odor compounds [2]; [6]): 0.39 ± 0.3 ×10^4
Ketones (stool odor compounds [2]; [6]): 25.6 ± 8.14 ×10^4
Phenols (stool odor compounds [2]; [6]): 10.3 ± 4.3 ×10^4
Thiols/Sulfides (stool odor compounds [2]; [6]): 6.2 ± 2.3 ×10^4
Alcohols (stool odor compounds [2]; [7]): 6.87 ± 10.8 ×10^4
Aldehydes (stool odor compounds [2]; [7]): 3.6 ± 1.7 ×10^4
Carboxylic acids (stool odor compounds [2]; [7]): 225 ± 78.1 ×10^4
Esters (stool odor compounds [2]; [7]): 76.9 ± 47.5 ×10^4
Heterocycles (stool odor compounds [2]; [7]): 0.62 ± 0.22 ×10^4
Indoles (stool odor compounds [2]; [7]): 0.88 ± 0.62 ×10^4
Ketones (stool odor compounds [2]; [7]): 60.7 ± 38.1 ×10^4
Phenols (stool odor compounds [2]; [7]): 12.6 ± 4.7 ×10^4
Thiols/Sulfides (stool odor compounds [2]; [7]): 7.7 ± 3.4 ×10^4
Alcohols (stool odor compounds [2]; [8]): 15.1 ± 23.3 ×10^4
Aldehydes (stool odor compounds [2]; [8]): 1.9 ± 1.6 ×10^4
Carboxylic acids (stool odor compounds [2]; [8]): 146 ± 144 ×10^4
Esters (stool odor compounds [2]; [8]): 28.7 ± 1.8 ×10^4
Heterocycles (stool odor compounds [2]; [8]): 0.46 ± 0.17 ×10^4
Indoles (stool odor compounds [2]; [8]): 2.3 ± 1.5 ×10^4
Ketones (stool odor compounds [2]; [8]): 42.2 ± 26.2 ×10^4
Phenols (stool odor compounds [2]; [8]): 7.2 ± 2.7 ×10^4
Thiols/Sulfides (stool odor compounds [2]; [8]): 6.8 ± 3.9 ×10^4
Effect of addition of zinc to the food on stool odor compound levels (in words) (stool odor compounds [2]; cats, 860-1800 ppm added zinc vs control food): decreased stool levels of heterocycles, indoles, aldehydes and phenols
number of flatulent episodes (flatulence): decreased
odor of gas (flatulence): decreased
total gas production (flatulence): decreased
